Assays:
Assay type in all cases: in vivo, human
[1] = Adverse events and safety laboratory monitoring; settings: 50 mg every 6 hours for 9 days
Procedure: All subjects were instructed to record any adverse effects and to report them to study personnel, and women were advised to keep a record of any abnormal menstrual bleeding. For proper safety monitoring, subjects returned approximately one week (day 19) and three weeks (day 33) after the discontinuation of the study drug for both treatment arms. During this safety visit, serum electrolytes, renal and liver function, and complete blood count were measured, as well as evaluation and treatment for potential treatment-related abnormalities/adverse events.

[2] = Plasma hormone levels (testosterone, androstenedione, DHEA sulfate); settings: 50 mg every 6 hours for 9 days, mean±SD
Procedure: (§1) To reduce potential variability associated with estrogen in premenopausal women, testing was performed in the early follicular phase (days 1-7 of menstrual cycle). Baseline height and weight were measured after an overnight fast. Subjects received an isocaloric regular diet during the inpatient part of the study, and those on metformin took the same dose throughout the study. Baseline testing took place took place over three inpatient days at the NIH Clinical Center, during which fasting blood was drawn, 24-hour urine was collected, 24-hour serial blood draws were obtained, and patients received both a […] (FSIVGTT) and a 75-g oral glucose tolerance test (OGTT). Subjects were then randomized to receive placebo or mifepristone for 9 days, of which the first 6 days the subjects returned home, and the final 3 days subjects underwent the same metabolic testing as during the baseline period. Subjects randomized to the mifepristone treatment arm were instructed to take one capsule (50 mg) every 6 hours (200 mg/day) over the course of 9 days. The placebo treatment arm received the same instructions to take one capsule every 6 hours over the course of the 9-day treatment period. Following the completion of the post-drug testing, subjects entered a 6-8 week washout period, after which they were crossed over to the other treatment arm, serving as their own controls for the study drug treatments.

[3] = Body weight, blood pressure and serum lipids after 9-day administration; settings: 50 mg every 6 hours for 9 days; mean±SD, n=16
Procedure: as §1
Changes in body weight, BP and serum lipid concentrations for each study subject were evaluated at baseline and after 9-day administration of mifepristone or placebo, There were no significant differences observed in body weight or BMI between the treatment arms. BP was higher after mifepristone treatment for both systolic and diastolic values.

[4] = tested on: overweight or obese subjects with prediabetes or mild type 2 diabetes; experiment: 75-g oral glucose tolerance test (OGTT); settings: 50 mg every 6 hours for 9 days
Procedure: A randomized, placebo-controlled, double-blind crossover trial was conducted to evaluate the use of an anti-glucocorticoid as a means for ameliorating insulin resistance. Mifepristone, 50 mg, or a placebo, was administered every six hours for nine days to sixteen overweight or obese (BMI 25-37 kg/m^2) subjects (seven women). Participant ages ranged from 48 to 64 years. Ten had prediabetes and six had mild diabetes type II (HgbA1c less than 7%). Treatment of the glucose disorder with diet or a stable dose of metformin (used by two patients) was maintained for three (3) months before the study. The interventions were nine days of mifepristone or placebo treatment followed by a six (6) to eight (8) week wash out and cross over to the other arm. At baseline and at the end of each treatment period, parameters of insulin sensitivity were assessed by a frequently sampled intravenous glucose tolerance test (FSIVGTT) and an oral glucose tolerance test (OGTT). A whole body glucose disposal index of insulin sensitivity (SI) was derived using a minimal model analysis. Adipose tissue-SI, which reflects insulin-induced free fatty acid suppression, was estimated by the log-linear slope of free fatty acid levels and the AUC of insulin during the FSIVGTT. Matsuda index, oral glucose insulin sensitivity index (OGIS, ml/min/m^2), and hepatic insulin resistance index (HIRI, mg/dl×microU/ml×10^5) were derived from OGTT. Adipo-IR, a surrogate measure of adipocyte insulin resistance, was calculated by multiplying fasting concentrations of free fatty acids and insulin (mmol×pmol/L). Comparison of various post-treatment parameters was performed using crossover ANOVA. This analysis takes into account specific treatment arm, treatment order, and treatment effects. Thus, carryover effects were explicitly tested for in the crossover study.
On day 3 of baseline and post-treatment testing, subjects underwent a 75-gram OGTT. Serial blood draws for measurement of glucose, insulin and c-peptide were obtained at −5, 0, 30, 60, 90, 120, 150, and 180 minutes.
The Matsuda index and Oral Glucose Insulin Sensitivity Index (OGIS), surrogate indices of whole-body insulin sensitivity were derived from plasma glucose and insulin concentrations during the OGTT as previously described. Abdul-Ghani M A, et. al., Diabetes Care 2007; 30 (1): 89-94. HIRI was calculated as the product of the area under the curves of glucose and insulin for the first 30 minutes of the OGTT. Abdul-Ghani M A, ibid. The Adipo-IR index, a surrogate measure for fasting adipose adipose-tissue insulin resistance, was calculated as the product of fasting insulin and fasting FFA. Sondergaard E. et al., J. Clin. Endocrinol. Metab. 2017; 102(4):1193-9. A dynamic surrogate index of adipose tissue insulin sensitivity was assessed by calculating insulin's ability to suppress FFA levels during a FSIVGTT. Carpenter A. et al., Diabetes 2002; 51(6):1867-75 and Trottier A. et al. Fertil. Steril. […]; 98 (6):1627-34. The adipose tissue insulin sensitivity index was calculated as the ratio of the slope of the linear decrease in natural log transformed FFA [Ln (FFA) slope] during the first 90 minutes of the FSIVGTT and the AUC of insulin during that 90-minute period (AUCInsulin 0-90 min). Mathematical modeling of C-peptide concentrations was used to estimate insulin secretory rates and calculate β-cell responsivity parameters (basal (∅B); first-phase (∅1); second phase (∅2); and total (∅TOT) as previously described. Toffolo G. et al., Metabolism 1999; 48 (9):1162-6 and Cobelli C. et al. Am. J. Physiol. Endocrinol. Metab. 2007; 293 (1): E1-E5. Assuming an absence of hepatic C-peptide extraction, postprandial insulin clearance was calculated as the ratio of mean insulin secretion and insulin concentration. Trico D. et al. JCI Insight 2018; 3(24):e124912.

[5] = tested on: hypothalamic-pituitary-adrenal axis; experiment: 24-hour profile of ACTH and cortisol
Procedure: as §1
Data shown are mean±SEM with p values provided for the effects of treatment group, time, and the treatment-time interaction, which was obtained with repeated-measures ANOVA with post-hoc Bonferroni's test. Tukey box and whisker plots show ACTH (B) and cortisol (D) area under the curve for the 24-hour period. Top and bottom box limits represent the 75th and 25th percentile, respectively; midlines represent the median, and top and bottom whiskers represent the 75th percentile plus 1.5 of the interquartile range (IQR) and the 25th percentile minus 1.5 IQR, respectively. Post-treatment values were adjusted for baseline and treatment group using mixed-model regression. P values indicate significance for comparisons between mifepristone and placebo.

[6] = 50 mg every 6 hours for 9 days, all subjects

CC#C[C@]1(O)CC[C@H]2[C@@H]3CCC4=CC(=O)CCC4=C3[C@@H](c3ccc(N(C)C)cc3)C[C@@]21C [Mifepristone, 11beta-[p-(dimethylamino)phenyl]-17alpha-(1-propynl)estra-4,9-dien-17beta-ol-3-one]
Serious adverse events [1]: No serious adverse events | Androstenedione ([2]; n=16): 110 ± 64.7 ng/dL | DHEA Sulfate ([2]; n=16): 1.04 ± 0.64 µg/mL | Total testosterone (male) ([2]; male subjects): 235.2 ± 87.5 ng/dL | Body-Mass Index [3]: 32.2 ± 3.9 kg/m^2 | Diastolic Blood Pressure [3]: 77 ± 9.2 mmHg | HDL Cholesterol [3]: 41.3 ± 11.9 mg/dL | LDL Cholesterol [3]: 97.1 ± 34.6 mg/dL | Systolic Blood Pressure [3]: 130 ± 13 mmHg | Total Cholesterol [3]: 163.6 ± 419 mg/dL | Triglycerides [3]: 125.6 ± 65.6 mg/dL | Insulin clearance during OGTT vs placebo [4]: lower | AUC for glucose during OGTT vs placebo ([4]; 3-hr OGTT): not statistically significant | AUC for insulin during OGTT, lower compared to placebo ([4]; 3-hr OGTT): about 25% | Hepatic Insulin Resistance Index (HIRI) ([4]; AUC glucose × AUC insulin, first 30 min of OGTT, mean±SD, n=16): 50.2±38.7 mg/dl×microU/ml×10^5 | Fasting insulin secretory rate (ISR) vs placebo ([4]; C-peptide modeling): significantly lower | ISR during OGTT vs placebo ([4]; C-peptide modeling): not different | Static, dynamic and total β-cell responsivity indices vs placebo ([4]; derived from OGTT): similar | ACTH area under the curve (AUC), 24-hour [5, 6]: 574.5 ± 260.8 pg·min/mL | Cortisol area under the curve (AUC), 24-hour [5, 6]: 255.4 ± 61.9 µg·min/dL | Serum cortisol AUC, subjects with higher 24-hr UFC ([5]; mifepristone arm, subgroup with higher 24-hr UFC): 284.9 ± 39.9 µg·min/dL | Serum cortisol AUC, subjects with normal 24-hr UFC ([5]; mifepristone arm, subgroup with normal 24-hr UFC): 229.8 ± 68.5 µg·min/dL
